# Reference: paper PMC10337138 (Acta Neuropathologica Communications, 2023)
# Legend:
# Conditions in all cases: 1 mM ATP; inhibitor
# FRK = FRK (Homo sapiens, UniProt P42685)
# Description: (§1) Kinase selectivity panel Kinome profiling was conducted by AssayQuant Technologies (Marlboro, MA) using Sox chromophore technology and Sox-based peptide substrates developed for human kinases in a 384-well format. Compounds were tested at 1 µM in the presence of 1 mM ATP.
# FGFR3 = FGFR3 (Homo sapiens, UniProt P22607)
# Description: as §1
# MST1R/RON = MST1R/RON (Homo sapiens, UniProt Q04912)
# Description: as §1
# TESK2 = TESK2 (Homo sapiens, UniProt Q96S53)
# Description: as §1
# LIMK2 = LIMK2 (Homo sapiens, UniProt P53671)
# Description: as §1
# LIMK1 = LIMK1 (Homo sapiens, UniProt P53667)
# Description: as §1
# LYNB = molecular target: T1, LYNB (Homo sapiens, UniProt P07948)
# T1 construct: gene LYN
# Description: as §1
# SRPK2 = SRPK2 (Homo sapiens, UniProt P78362)
# Description: as §1
# MUSK = MUSK (Homo sapiens, UniProt O15146)
# Description: as §1
# AKT2 = AKT2 (Homo sapiens, UniProt P31751)
# Description: as §1
# EPHA4 = EPHA4 (Homo sapiens, UniProt P54764)
# Description: as §1
# RPS6KB1/P70S6K = RPS6KB1/P70S6K (Homo sapiens, UniProt P23443)
# Description: as §1
# PHKG1 = PHKG1 (Homo sapiens, UniProt Q16816)
# Description: as §1
# EIF2AK2/PKR = EIF2AK2/PKR (Homo sapiens, UniProt P19525)
# Description: as §1
# TAOK1 = TAOK1 (Homo sapiens, UniProt Q7L7X3)
# Description: as §1
# MAP3K1 = MAP3K1 (Homo sapiens, UniProt Q13233)
# Description: as §1
# CSNK2A1/CK2A1 = CSNK2A1/CK2A1 (Homo sapiens, UniProt P68400)
# Description: as §1
# PTK2B = PTK2B (Homo sapiens, UniProt Q14289)
# Description: as §1
# TEK/TIE2 = TEK/TIE2 (Homo sapiens, UniProt Q02763)
# Description: as §1
# CAMK1A = molecular target: T2, CAMK1A (Homo sapiens, UniProt Q14012)
# T2 construct: gene CAMK1
# Description: as §1
# MELK = MELK (Homo sapiens, UniProt Q14680)
# Description: as §1
# PASK = PASK (Homo sapiens, UniProt Q96RG2)
# Description: as §1
# ERN1 = ERN1 (Homo sapiens, UniProt O75460)
# Description: as §1
# GSK3A = GSK3A (Homo sapiens, UniProt P49840)
# Description: as §1
# TTBK2 = TTBK2 (Homo sapiens, UniProt Q6IQ55)
# Description: as §1
# PRKCE/PKCE = PRKCE/PKCE (Homo sapiens, UniProt Q02156)
# Description: as §1
# CDK3/E1 = CDK3/E1 (Homo sapiens, UniProt Q00526)
# Description: as §1
# EPHA1 = EPHA1 (Homo sapiens, UniProt P21709)
# Description: as §1
# BMP2K/BIKE = BMP2K/BIKE (Homo sapiens, UniProt Q9NSY1)
# Description: as §1
# MAP3K6/ASK2 = MAP3K6/ASK2 (Homo sapiens, UniProt O95382)
# Description: as §1
# DYRK2 = DYRK2 (Homo sapiens, UniProt Q92630)
# Description: as §1
# CDK1/E1 = CDK1/E1 (Homo sapiens, UniProt P06493)
# Description: as §1
# MARK4 = MARK4 (Homo sapiens, UniProt Q96L34)
# Description: as §1
# GAK = GAK (Homo sapiens, UniProt O14976)
# Description: as §1
# IRAK4 = IRAK4 (Homo sapiens, UniProt Q9NWZ3)
# Description: as §1
# PRKCG/PKCG = PRKCG/PKCG (Homo sapiens, UniProt P05129)
# Description: as §1
# FYNA = molecular target: T3, FYNA (Homo sapiens, UniProt P06241)
# T3 construct: gene FYN
# Description: as §1
# PRKD3 = PRKD3 (Homo sapiens, UniProt O94806)
# Description: as §1
# PRKG2 = PRKG2 (Homo sapiens, UniProt Q13237)
# Description: as §1
# PTK2B, sequence (Q14289 whole entry): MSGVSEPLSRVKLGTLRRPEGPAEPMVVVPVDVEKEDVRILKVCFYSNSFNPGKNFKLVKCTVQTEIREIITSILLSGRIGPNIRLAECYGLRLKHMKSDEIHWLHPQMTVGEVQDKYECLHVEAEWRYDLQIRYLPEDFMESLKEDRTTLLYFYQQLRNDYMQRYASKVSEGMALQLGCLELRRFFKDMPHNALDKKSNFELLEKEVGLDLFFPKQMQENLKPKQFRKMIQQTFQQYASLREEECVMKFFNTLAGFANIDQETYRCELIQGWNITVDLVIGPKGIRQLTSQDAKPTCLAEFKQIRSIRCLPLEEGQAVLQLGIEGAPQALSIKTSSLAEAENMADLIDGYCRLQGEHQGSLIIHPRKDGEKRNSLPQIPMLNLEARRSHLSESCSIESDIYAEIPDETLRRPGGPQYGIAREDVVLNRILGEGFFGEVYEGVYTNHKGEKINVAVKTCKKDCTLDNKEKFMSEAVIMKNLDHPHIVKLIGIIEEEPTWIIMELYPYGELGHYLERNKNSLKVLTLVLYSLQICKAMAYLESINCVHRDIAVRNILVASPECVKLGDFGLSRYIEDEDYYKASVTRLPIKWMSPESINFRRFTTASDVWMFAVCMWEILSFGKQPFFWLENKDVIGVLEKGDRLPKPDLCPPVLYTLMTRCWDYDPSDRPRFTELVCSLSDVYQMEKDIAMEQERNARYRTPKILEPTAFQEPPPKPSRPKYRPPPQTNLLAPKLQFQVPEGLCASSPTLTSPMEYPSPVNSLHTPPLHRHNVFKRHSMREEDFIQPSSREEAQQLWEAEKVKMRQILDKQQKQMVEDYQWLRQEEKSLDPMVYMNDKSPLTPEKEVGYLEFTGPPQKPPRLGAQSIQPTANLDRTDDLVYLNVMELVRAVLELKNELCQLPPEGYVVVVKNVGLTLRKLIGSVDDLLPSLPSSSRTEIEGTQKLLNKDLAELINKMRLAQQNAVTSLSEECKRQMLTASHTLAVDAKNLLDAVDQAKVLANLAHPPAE
# EPHA4, sequence (P54764 whole entry): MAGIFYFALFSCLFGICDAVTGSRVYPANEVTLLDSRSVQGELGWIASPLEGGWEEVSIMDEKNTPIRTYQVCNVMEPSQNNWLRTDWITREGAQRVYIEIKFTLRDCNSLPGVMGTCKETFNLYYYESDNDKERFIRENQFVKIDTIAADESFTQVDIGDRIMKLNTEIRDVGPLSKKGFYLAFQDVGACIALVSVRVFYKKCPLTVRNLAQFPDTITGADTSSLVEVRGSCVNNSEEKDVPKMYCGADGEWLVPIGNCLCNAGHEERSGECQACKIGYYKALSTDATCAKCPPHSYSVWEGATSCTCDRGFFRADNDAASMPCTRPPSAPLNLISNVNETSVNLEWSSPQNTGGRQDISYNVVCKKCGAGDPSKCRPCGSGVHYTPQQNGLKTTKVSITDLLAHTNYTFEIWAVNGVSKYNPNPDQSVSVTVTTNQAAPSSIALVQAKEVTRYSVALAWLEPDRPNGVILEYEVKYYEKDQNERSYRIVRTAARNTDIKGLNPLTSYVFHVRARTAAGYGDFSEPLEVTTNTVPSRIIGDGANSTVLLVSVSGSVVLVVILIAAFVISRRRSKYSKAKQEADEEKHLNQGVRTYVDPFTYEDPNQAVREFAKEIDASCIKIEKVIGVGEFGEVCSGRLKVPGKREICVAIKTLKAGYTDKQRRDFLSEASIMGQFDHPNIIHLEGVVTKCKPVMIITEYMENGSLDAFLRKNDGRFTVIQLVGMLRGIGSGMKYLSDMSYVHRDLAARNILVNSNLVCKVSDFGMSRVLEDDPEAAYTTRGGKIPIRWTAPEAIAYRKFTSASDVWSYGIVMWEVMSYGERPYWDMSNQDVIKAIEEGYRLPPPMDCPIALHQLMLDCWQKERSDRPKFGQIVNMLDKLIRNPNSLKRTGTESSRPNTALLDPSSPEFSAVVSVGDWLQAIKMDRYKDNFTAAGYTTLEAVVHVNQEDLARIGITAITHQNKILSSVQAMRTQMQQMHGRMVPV
# EPHA1, sequence (P21709 whole entry): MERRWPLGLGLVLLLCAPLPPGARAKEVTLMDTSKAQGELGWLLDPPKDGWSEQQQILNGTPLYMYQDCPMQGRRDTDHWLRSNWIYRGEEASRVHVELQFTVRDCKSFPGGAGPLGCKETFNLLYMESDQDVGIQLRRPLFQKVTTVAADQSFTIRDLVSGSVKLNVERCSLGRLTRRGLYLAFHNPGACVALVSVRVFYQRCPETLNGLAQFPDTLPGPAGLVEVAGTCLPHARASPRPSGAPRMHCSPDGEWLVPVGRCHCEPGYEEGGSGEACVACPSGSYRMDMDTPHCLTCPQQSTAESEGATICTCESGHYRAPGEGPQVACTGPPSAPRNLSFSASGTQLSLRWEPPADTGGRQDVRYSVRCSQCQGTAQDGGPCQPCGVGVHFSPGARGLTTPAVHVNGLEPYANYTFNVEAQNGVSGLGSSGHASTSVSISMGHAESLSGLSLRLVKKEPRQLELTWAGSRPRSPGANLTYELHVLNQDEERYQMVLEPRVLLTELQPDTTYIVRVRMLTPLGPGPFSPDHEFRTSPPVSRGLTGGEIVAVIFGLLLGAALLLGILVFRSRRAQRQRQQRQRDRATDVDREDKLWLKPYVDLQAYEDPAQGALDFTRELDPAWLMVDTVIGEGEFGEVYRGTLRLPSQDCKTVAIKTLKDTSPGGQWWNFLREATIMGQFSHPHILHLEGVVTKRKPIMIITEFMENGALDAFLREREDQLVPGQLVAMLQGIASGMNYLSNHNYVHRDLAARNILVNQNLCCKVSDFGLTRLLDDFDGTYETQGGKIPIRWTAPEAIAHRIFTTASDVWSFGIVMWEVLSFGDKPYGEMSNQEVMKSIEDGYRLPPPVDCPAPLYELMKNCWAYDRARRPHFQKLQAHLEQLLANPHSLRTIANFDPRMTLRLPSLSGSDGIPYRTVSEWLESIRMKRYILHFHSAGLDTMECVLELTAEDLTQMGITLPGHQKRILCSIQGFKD
# TESK2, sequence (Q96S53 whole entry): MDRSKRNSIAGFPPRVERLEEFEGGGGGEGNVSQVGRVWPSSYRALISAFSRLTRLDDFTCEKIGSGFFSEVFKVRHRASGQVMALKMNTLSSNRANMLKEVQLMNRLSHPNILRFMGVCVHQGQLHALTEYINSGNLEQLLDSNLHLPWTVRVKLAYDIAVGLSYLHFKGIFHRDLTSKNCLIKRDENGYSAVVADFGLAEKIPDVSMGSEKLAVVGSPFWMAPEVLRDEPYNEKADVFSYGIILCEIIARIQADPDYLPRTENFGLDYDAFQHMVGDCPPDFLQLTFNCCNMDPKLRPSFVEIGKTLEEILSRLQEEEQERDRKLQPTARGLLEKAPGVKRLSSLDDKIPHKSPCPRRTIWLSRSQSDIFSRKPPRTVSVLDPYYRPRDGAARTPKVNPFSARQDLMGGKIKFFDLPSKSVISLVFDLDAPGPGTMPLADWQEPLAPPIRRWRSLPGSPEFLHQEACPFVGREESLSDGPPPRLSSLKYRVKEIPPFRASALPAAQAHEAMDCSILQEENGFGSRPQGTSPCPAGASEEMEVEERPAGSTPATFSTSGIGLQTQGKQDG
# PHKG1, sequence (Q16816 whole entry): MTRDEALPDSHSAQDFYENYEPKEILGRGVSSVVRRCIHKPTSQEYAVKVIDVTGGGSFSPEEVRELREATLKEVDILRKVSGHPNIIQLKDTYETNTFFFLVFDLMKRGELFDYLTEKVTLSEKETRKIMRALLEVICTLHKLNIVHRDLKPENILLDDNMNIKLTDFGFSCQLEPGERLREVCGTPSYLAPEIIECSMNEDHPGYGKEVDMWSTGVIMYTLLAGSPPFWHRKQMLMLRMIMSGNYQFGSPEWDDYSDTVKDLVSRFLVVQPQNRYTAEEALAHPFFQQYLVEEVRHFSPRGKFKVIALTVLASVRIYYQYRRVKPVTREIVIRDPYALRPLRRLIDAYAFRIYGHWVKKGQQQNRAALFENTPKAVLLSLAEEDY
# PRKD3, sequence (O94806 whole entry): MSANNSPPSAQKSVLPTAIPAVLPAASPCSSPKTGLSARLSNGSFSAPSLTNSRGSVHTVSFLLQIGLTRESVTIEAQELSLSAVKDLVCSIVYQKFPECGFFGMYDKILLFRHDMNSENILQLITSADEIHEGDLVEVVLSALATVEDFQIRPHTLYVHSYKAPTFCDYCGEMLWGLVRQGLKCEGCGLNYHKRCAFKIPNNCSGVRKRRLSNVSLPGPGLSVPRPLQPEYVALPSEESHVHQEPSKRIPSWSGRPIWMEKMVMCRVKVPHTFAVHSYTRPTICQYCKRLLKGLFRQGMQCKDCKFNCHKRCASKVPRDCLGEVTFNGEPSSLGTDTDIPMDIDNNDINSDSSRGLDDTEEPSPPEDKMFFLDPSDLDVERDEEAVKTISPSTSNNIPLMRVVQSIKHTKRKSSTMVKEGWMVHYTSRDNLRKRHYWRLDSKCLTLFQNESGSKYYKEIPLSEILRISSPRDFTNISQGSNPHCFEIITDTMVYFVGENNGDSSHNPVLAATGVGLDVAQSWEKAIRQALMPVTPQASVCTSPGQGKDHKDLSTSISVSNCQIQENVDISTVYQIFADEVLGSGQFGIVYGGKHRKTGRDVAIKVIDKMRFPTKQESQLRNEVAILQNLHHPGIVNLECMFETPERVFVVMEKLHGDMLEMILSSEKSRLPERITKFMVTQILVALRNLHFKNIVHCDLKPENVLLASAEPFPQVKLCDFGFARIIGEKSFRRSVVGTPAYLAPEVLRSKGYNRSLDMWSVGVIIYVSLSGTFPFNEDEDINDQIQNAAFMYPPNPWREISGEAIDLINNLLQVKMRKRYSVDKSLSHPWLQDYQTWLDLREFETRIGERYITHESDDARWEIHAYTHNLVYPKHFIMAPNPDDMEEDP
smiles,measurement,setting,value
C=CC(=O)N1CCC[C@@H](n2nc(-c3ccc(Oc4ccccc4)cc3)c3c(N)ncnc32)C1 [Ibrutinib],"1 µM GBD00276 (ibrutinib), % inhibition",FRK,45.62%
same,"1 µM GBD00276 (ibrutinib), % inhibition",FGFR3,31.81%
same,"1 µM GBD00276 (ibrutinib), % inhibition",MST1R/RON,1.112%
same,"1 µM GBD00276 (ibrutinib), % inhibition",TESK2,8.621%
same,"1 µM GBD00276 (ibrutinib), % inhibition",LIMK2,11.59%
same,"1 µM GBD00276 (ibrutinib), % inhibition",LIMK1,4.583%
same,"1 µM GBD00276 (ibrutinib), % inhibition",LYNB,40.58%
same,"1 µM GBD00276 (ibrutinib), % inhibition",SRPK2,8.374%
same,"1 µM GBD00276 (ibrutinib), % inhibition",MUSK,8.501%
same,"1 µM GBD00276 (ibrutinib), % inhibition",AKT2,17.43%
same,"1 µM GBD00276 (ibrutinib), % inhibition",EPHA4,-4.922%
same,"1 µM GBD00276 (ibrutinib), % inhibition",RPS6KB1/P70S6K,-19.78%
same,"1 µM GBD00276 (ibrutinib), % inhibition",PHKG1,0.1781%
same,"1 µM GBD00276 (ibrutinib), % inhibition",EIF2AK2/PKR,0.3752%
same,"1 µM GBD00276 (ibrutinib), % inhibition",TAOK1,0.7765%
same,"1 µM GBD00276 (ibrutinib), % inhibition",MAP3K1,-9.45%
same,"1 µM GBD00276 (ibrutinib), % inhibition",CSNK2A1/CK2A1,11.48%
same,"1 µM GBD00276 (ibrutinib), % inhibition",PTK2B,21.97%
same,"1 µM GBD00276 (ibrutinib), % inhibition",TEK/TIE2,2.512%
same,"1 µM GBD00276 (ibrutinib), % inhibition",CAMK1A,-26.28%
same,"1 µM GBD00276 (ibrutinib), % inhibition",MELK,-0.3303%
same,"1 µM GBD00276 (ibrutinib), % inhibition",PASK,16.95%
same,"1 µM GBD00276 (ibrutinib), % inhibition",ERN1,1.571%
same,"1 µM GBD00276 (ibrutinib), % inhibition",GSK3A,12.02%
same,"1 µM GBD00276 (ibrutinib), % inhibition",TTBK2,6.635%
same,"1 µM GBD00276 (ibrutinib), % inhibition",PRKCE/PKCE,-10.08%
same,"1 µM GBD00276 (ibrutinib), % inhibition",CDK3/E1,0.5426%
same,"1 µM GBD00276 (ibrutinib), % inhibition",EPHA1,10.7%
same,"1 µM GBD00276 (ibrutinib), % inhibition",BMP2K/BIKE,12.88%
same,"1 µM GBD00276 (ibrutinib), % inhibition",MAP3K6/ASK2,25.05%
same,"1 µM GBD00276 (ibrutinib), % inhibition",DYRK2,14.5%
same,"1 µM GBD00276 (ibrutinib), % inhibition",CDK1/E1,-2.236%
same,"1 µM GBD00276 (ibrutinib), % inhibition",MARK4,-1.923%
same,"1 µM GBD00276 (ibrutinib), % inhibition",GAK,-7.706%
same,"1 µM GBD00276 (ibrutinib), % inhibition",IRAK4,1.168%
same,"1 µM GBD00276 (ibrutinib), % inhibition",PRKCG/PKCG,-20.25%
same,"1 µM GBD00276 (ibrutinib), % inhibition",FYNA,15.99%
same,"1 µM GBD00276 (ibrutinib), % inhibition",PRKD3,1.376%
same,"1 µM GBD00276 (ibrutinib), % inhibition",PRKG2,26.79%
